# Measured values: patent publication US8524222B2, “Bacillus isolates and methods of their use to protect against plant pathogens and virus transmission” (Montana State University, priority 2006, dated 2013)
# Values joined by “and” are separate entries in the source; they are usually repeats but may differ in a detail not shown here. Identical values can stand only once.
# Key:
# Botrytis cinerea = system: Botrytis cinerea; set-up: species or system Arabidopsis thaliana; conditions: in vivo
# C. beticola = assay: Field studies of Cercospora leaf spot control, Sidney, Mont.; set-up: species or system sugar beet; conditions: in vivo
# Method: Field studies were conducted at the Eastern Agricultural Research Center in Sidney, Mont. from 1996 through 2003. Sugar beet variety ‘Beta 1996’ was planted the first year, VDH 66140 was planted the second year, HH88 the third year, KW2262 the fourth year and Beta 2185 the fifth, sixth, and seventh years. All cultivars were equally susceptible to C. beticola infection (BetaSeed, Shakopee, Minn., U.S.A.). […] In the last two years, freshly grown, washed cells were harvested from a 24 h tryptic soy broth culture grown at room temperature and prepared as described above, and applied to the plants. Fungicide treatments included triphenyltin hydroxide (TPTFI, SuperTin, Griffin L.L.C.), propiconazole (Tilt, Syngenta Crop Protection, Inc) and tetraconazole (Eminent, Sipeam Agro USA Inc.) that were applied at 390, 253 and 876 g ai ha^−1, respectively. All treatments were applied at 1761 ha^−1 using a CO2 backpack sprayer with a 4-nozzle boom starting at disease onset and continued at 14 day intervals for a total of four sprays. Plots were arranged “in a randomized complete block design. with six replicates per treatment. […] Area under the disease progress curve (AUDPC) was calculated for treated and untreated plants and percent disease control was determined as follows: 1-([…])*100. […]
# Cercospora beticola [1] = system: Cercospora beticola; set-up: species or system sugar beet; conditions: in vivo
# [2] = system: Fusarium culmorum isolate 2279; set-up: species or system spring wheat; conditions: in vivo
# [3] = system: chitinase and B-1,3-glucanase; assay: Combined glycol chitin and aniline blue plate assays as predictor of SAR induction; assay type: in vivo, sugar beet; set-up: key: ✓: correctly identified all SAR-inducing isolates, indicated by check marks in Table 5; conditions: identified as SAR-inducer by increased activity of both defense proteins
# Source text: There may be circumstances where the occurrence of chitinase and B-glucanase alone is not correlated with disease control (Punja, 2001), especially with fungal pathogens, since the enzymes function synergistically (Melchers and Stuiver, 2000). Therefore examination of the defense proteins together provides a more accurate prediction of disease control capability. Based on the assumption that increased activity for both defense proteins indicated SAR-inducing capacity, combined results from the glycol chitin and aniline blue plate assays correctly identified all SAR-inducing isolates, indicated by check marks in Table 5.
# Cercospora beticola [4] = system: Cercospora beticola; set-up: species or system sugar beet; conditions: in vivo; remark: listed apart in the source
# B-1,3-glucanase [5] = assay: Aniline blue plate assay for B-glucanase activity (screening); assay type: in vivo, sugar beet; conditions: cumulative results, 6 days after treatment
# Method: (§1) The leaf penultimate to the oldest true leaf was treated with one of the Bacillus strains. […] The plants were kept at 28+/−2° C. for 6 days at which time the apoplastic proteins were collected as described by Klement (1965), with the following modification: a buffer containing 150 mM NaCl and 25 mM MES, pH 6.2, was substituted for distilled water. The proteins were quantified by Bradford reagent (Bio-Red) using bovine serum albumin as standards and frozen at −80° C. until analyzed.
# Apoplastic protein (0.75, 0.50, and 0.25 ug for each sample in replicates of 3) was added to 3-mm diameter wells in a 0.5% agarose gel containing 0.005% aniline blue (MCB) and 0.5m.1/ml laminarin (from Laminaria digitata, Sigma) in a 14 cm diameter glass petri plate, along with laminarinase (Penicillium spp., Sigma) standards (2×10.5−2×10^−3 units of lamina˜inase). The plates were incubated at 30° C. for 18-24 hours. Following Incubation, the pink lytic zones on a blue background were measured while the plate was on a white light source. Specific activity (ug of glucose released/min/mg of apoplastic protein) was determined by comparison of the lytic zone diameter of the standards and the apoplastic samples.
# NPR1 = system: NPR1; set-up: species or system sugar beet; conditions: in vivo
# B-1,3-glucanase [6] = assay: B-1,3-glucanase specific activity of apoplastic protein (glucose release from laminarin); assay type: in vivo, sugar beet; conditions: distal leaves, six days post treatment
# Method: (§2) One leaf per replicate was collected for each treatment and immediately placed in buffer (150 mm NaCl, 25 mm MES, pH 6-2). Apoplast extractions were collected as described by Klement having substituted buffer (150 mM NaCl, 25 mm MES. pH 6.2) for water.
# The specific activity of sugar beet apoplastic B-1,3-glucanase was determined by measuring the release of glucose units from laminarin. Sodium acetate buffer (100 IJI, pH 5.0, 100 mM) containing 0.5% laminarin and 0.5 ug-2.0 ug apoplastic protein (plants per treatment replicated 3 times) was incubated at 3rc for 30-60 min. Following incubation, 900 ul of water and 1 ml of alkaline copper reagent was added to each 2 reaction. The tubes were then placed into a boiling water bath for 10 min. After cooling on ice, 1 ml arsenomolybdate color reagent was added to each reaction. Once the bubbling had subsided, 10 ml of water were added to each tube before reading the A660.
# Chitinase [7] = assay: Chitinase specific activity of apoplastic protein by plate assay, six days post treatment; assay type: in vivo, sugar beet; conditions: distal leaves
# Method: as §2
# Chitinase Specific Activity Determination by Plate Assay Sodium phosphate buffer (pH 5.0, 0.01 M) containing 1 agarose and 0.1% glycol chitin was added to a 9 cm diameter glass petri dish. Wells, 3 mm diameter, were excised from the agarose (three per sample for each of the three replicates per treatment). Dilutions of apoplastic protein (0.7, 0.35, and 0.23 ug) and chitinase standards (chitinase from Streptomycesgriseus Sigma) were loaded into the wells. The plate was incubated at 37° C. for 24 h. Following the incubation, 50 ml of 500 mMTris-HCl (pH 8.9) containing 0.01% fluorescent brightener was added to the plate and incubated for 10 min. The plate was then quickly rinsed 3× with water, flooded with water, and destained overnight in the dark. Non-fluorescent lytic regions on a fluorescent background were measured while the plate was on an uv light source. Specific activity (mg of N-acetyl-n-glucosamine released /hr /mg of apoplastic protein) was determined by comparison of the diameters of the lytic regions for the standards and the lytic regions for the apoplastic protein samples [55]. Results
# salicylic acid = system: salicylic acid; set-up: species or system sugar beet; conditions: in vivo
# [8] = system: hydrogen peroxide production; assay: Phenol red oxidation assay for biphasic hydrogen peroxide production in protoplasts and leaf disks; assay type: cell-based, sugar beet
# Method: Sugar beet protoplasts were isolated from sugar beet leaves to provide a medium to measure hydrogen peroxide production. Sugar beet leaves were gently brushed on the adaxial and abaxial surfaces with a 50 ft bristle brush to create small abrasions. The leaves were then cut into 1 cm strips and vacuum infiltrated for 5 min with 0.7 M sucrose containing 3.8% CaCL2, CPW salts (Frearson et al, 1973), 1.2% cellulase (Sigma), and 0.4% macerozyme (ICN Biomedicals). The infiltrated leaves were incubated in the 0.7M sucrose-salt and enzyme solution for 24-48 hours in the dark. […]
# To determine if the Bacillus strains elicited biphasic hydrogen peroxide production in sugar beet, phenol red oxidation assays were performed according to Pick and Keisari (1980). […] The amount of hydrogen peroxide produced from protoplasts in response to treatment with a Bacillus control agent was calculated as follows: amount of hydrogen peroxide produced in Bacillus protoplast reactions—(amount of hydrogen peroxide produced in protoplast only reactions+amount of hydrogen peroxide produced in Bacillus-only reaction). The amount of hydrogen peroxide produced by the leaf disks in response to Bacillus treatment was calculated as follows: amount of hydrogen peroxide produced by Bacillus-treated leaf disks-amount of hydrogen peroxide produced by leaf disks only reaction.
# Peroxidase = assay: Apoplastic peroxidase activity (guaiacol reagent); assay type: in vivo, sugar beet; conditions: distal leaves, six days post treatment
# Method: The concentration of protein as adjusted to give a change in absorbance units greater than 0.100, but less than 0.200, per minute. Specific activity was expressed as the increase inabsorbance (A470) over time (2 min) per mg of protein, as determined using Bradford reagent (BioRAD).
# Chitinase [9] = assay: Glycol chitin plate assay for chitinase activity (screening); assay type: in vivo, sugar beet; conditions: cumulative results, 6 days after treatment
# Method: as §1
# Apoplastic protein (0.009, 0.006, and 0.005 ug for each sample in replicates of 3) was added to wells in a 1% agarose gel containing 0.01% glycol chitin in a 14 cm diameter glass petri plate, along with chitinase standards (Streptomyces griseus, Sigma). The plates were incubated at 37° C. for 24 hours. Following incubation. 50 ml of 500 mM Tris-HCl (pH 8.9) containing 0.01°/fluorescent brightener was added to the plate for 10 min. The plate was then rinsed three times with distilled water, flooded with water, and allowed to destain in the dark for 2-24 hours. The non-fluorescent lytic zones on a fluorescent background were measured while the plate was on a 302 nm UV light source. Specific activity (mg of N-acetyl-D-glucosamine released/hr/mg of apoplastic protein) was determined by comparison of the lyric zone diameter of the standards and the apoplastic samples (Velasquez. 2002).
smiles,measurement,setting,value
CC/C=C\CC1C(=O)CCC1CC(=O)OC (centres unmarked) [methyl jasmonate],% disease reduction in comparison to distilled water,Botrytis cinerea,49.9 d %
"[OH][Sn]([c]1ccccc1)([c]1ccccc1)[c]1ccccc1 [TPTH, triphenyltin hydroxide]",Disease Reduction by Year,C. beticola,81% and 90% and 94% and 72% and 88^d %
"CSC(=O)c1cccc2nnsc12 [ASM, Acibenzolar-S-methyl]",disease reduction,Cercospora beticola [1],50%
same,Disease Severity Index (%),[2],60.43% and 46.88% and 42.73 b % and 48.97% and 37.53 ab % and 47.31 b %
same,Aniline blue and glycol chitin plates,[3],✓
same,% Reduction at 21 DPC,Cercospora beticola [4],63.6% and 64.6%
same,Aniline blue plates,"B-1,3-glucanase [5]",5.70a
same,activation of NPR1,NPR1,activated NPR1 by 48 hours
same,Specific Activity Beta-glycanase,"B-1,3-glucanase [6]",198.6 micrograms of glucose released per minute per milligram of apoplastic protein
same,Specific Activity Chitinase,Chitinase [7],1.26 milligrams of N-acetyl-n-gluco
same,total SA levels over a 48 hour sampling scheme versus time zero,salicylic acid,lack of SA accumulation
same,biphasic hydrogen peroxide production,[8],did not induce biphasic hydrogen peroxide production
same,Specific Activity Peroxidase,Peroxidase,71.4 changes in absorbance (470 nm) per minute per milligram of apoplastic protein
same,Glycol chitin plates,Chitinase [9],3.09hed
"O=C(O)c1ccccc1O [SA, salicylic acid]",activation of NPR1,NPR1,activated NPR1 by 48 hours
"C=CCOC1=NS(=O)(=O)c2ccccc21 [PBZ, Probenazole]",% disease reduction in comparison to distilled water,Botrytis cinerea,41.9 c %
"O=P(O)(O)CCCl [ethephon, 2-chloroethylphosphonic acid]",% disease reduction in comparison to distilled water,Botrytis cinerea,28.1 b %
